Like-named read-outs stand apart in the source and are kept apart here.
Target: T1, E. coli DdlB enzyme (D-alanine:D-alanine ligase) (Escherichia coli, UniProt P07862)
T1 construct: made in house; host or cells: E. coli
Assay: biochemical
Settings: read-out: DdlB RA; for remaining activity at 1900 µM: tested concentration 1.9 mM; for remaining activity at 2100 µM: tested concentration 2.1 mM; for remaining activity at 2300 µM: tested concentration 2.3 mM; for remaining activity at 1800 µM: tested concentration 1.8 mM; for remaining activity at 2200 µM: tested concentration 2.2 mM; for remaining activity at 2400 µM: tested concentration 2.4 mM; for remaining activity at 1700 µM: tested concentration 1.7 mM; for remaining activity at 2000 µM: tested concentration 2.0 mM

## C#CC(=O)NC(C)c1ccc(C)cc1 (stereo not shown) [Compound T001-1588]
Residual activity of DdlB, fragment library screening, tested concentration 3.2 mM
  remaining activity at 3200 µM: 93%

## O=C1CS(=O)(=O)C2(CCNCC2)N1c1ccccc1 [Compound T140-0972]
Residual activity
  remaining activity at 1900 µM: 93%

## CCS(=O)(=O)N1CCc2[nH]c(-c3ccccc3)nc2C1 [Compound T147-0013]
Residual activity
  remaining activity at 2100 µM: 81%

## CCCn1c(C)cnc1C1CCNC1 (stereo not shown) [Compound T158-0004]
  remaining activity at 2300 µM: 86%

## CCn1cnnc1CC1CCCN(C(=O)c2ccco2)C1 (stereo not shown) [Compound T501-0329]
Residual activity
  remaining activity at 2100 µM: 69%

## CCCNC(=O)N1CCC(F)(C(=O)NC2CC2)CC1 [Compound T502-0828]
Residual activity
  remaining activity at 1800 µM: 97%

## O=C(C1CCC1)N1CCC(F)(C(=O)N2CCCC2)CC1 [Compound T502-1244]
Residual activity
  remaining activity at 1800 µM: 97%

## CCNC(=O)N1CCC(F)(C(=O)N2CCCC2)CC1 [Compound T502-1430]
Residual activity
  remaining activity at 2200 µM: 89%

## CCS(=O)(=O)N1CCC(F)(C(=O)N2CCCC2)CC1 [Compound T502-1464]
Residual activity
  remaining activity at 2100 µM: 83%

## CCNC(=O)N1CCCN(C)c2ccccc21 [Compound T599-3176]
  remaining activity at 2400 µM: 96%

## Cc1ccccc1C(=O)N1CCCN(C)c2ccccc21 [Compound T599-3543]
Residual activity
  remaining activity at 1800 µM: 72%

## CCc1nnc(C2CCCN(C(=O)C3CCCCC3)C2)[nH]1 (stereo not shown) [Compound T629-1509]
Residual activity
  remaining activity at 1700 µM: 71%

## Cc1nnc(C2CCN(C(=O)c3ccco3)CC2)[nH]1 [Compound T630-1922]
Residual activity
  remaining activity at 1900 µM: 58%

## O=C(c1ccccc1)N1CCC(c2nnc(C3CC3)[nH]2)CC1 [Compound T630-2594]
  remaining activity at 1700 µM: 91%

## Cc1c(C(=O)O)nnn1-c1ccc2c(c1)CCC2 [Compound T640-0079]
  remaining activity at 2100 µM: 92%

## Cc1ccc(F)c(-n2cc(C(=O)O)nn2)c1 [Compound T640-0432]
  remaining activity at 2300 µM: 100%

## CC(O)C1CCN(Cc2ccncc2)CC1 (stereo not shown) [Compound T786-0016]
  remaining activity at 2300 µM: 65%

## CC(O)C1CCN(Cc2ccc(Br)o2)CC1 (stereo not shown) [Compound T786-0030]
Residual activity
  remaining activity at 2100 µM: 94%

## CC1CCN(C(=O)C2N(C(C)C)C(=O)C23CCCC3)CC1 (stereo not shown) [Compound T964-0245]
Residual activity
  remaining activity at 2100 µM: 95%

## CC(C)N1C(=O)C2(CCCC2)C1C(=O)O (stereo not shown) [Compound T964-0325]
  remaining activity at 2400 µM: 92%

## O=C1C(O)C2(CCCCC2)N1C1CCNCC1 (stereo not shown) [Compound T965-0058]
Residual activity
  remaining activity at 2100 µM: 90%

## CNCCN1C(=O)C(C)SC1c1ccccc1C (stereo not shown) [Compound V007-8918]
  remaining activity at 1900 µM: 72%

## Cc1cccc(C2SC(C)C(=O)N2CC(=O)N(C)C)c1 (stereo not shown) [Compound V017-7801]
  remaining activity at 1700 µM: 98%

## CNC(=O)CN1C(=O)CSC1c1ccc(F)cc1 (stereo not shown) [Compound V022-4411]
  remaining activity at 1900 µM: 92%

## CNC(=O)CCN1C(=O)CSC1c1ccccc1Cl (stereo not shown) [Compound V026-8598]
  remaining activity at 1700 µM: 109%

## O=C(Nc1ccc(Cl)cc1)Nc1ccccc1C(=O)O [Compound Y020-0051]
Residual activity
  remaining activity at 1700 µM: 119%

## Cc1cc(O)n(C2CCS(=O)(=O)C2)n1 (stereo not shown) [Compound Y020-9160]
  remaining activity at 2300 µM: 99%

## O=C1CCn2ncnc2N1 [Compound Y021-0743]
Residual activity of DdlB, fragment library screening, tested concentration 3.6 mM
  remaining activity at 3600 µM: 98%

## CC1CC(C)(C)Nc2c(C(=O)O)cccc21 (stereo not shown) [Compound Y021-0767]
Residual activity
  remaining activity at 2300 µM: 97%

## CC1=CC(C)(C)Nc2c(C(=O)O)cccc21 [Compound Y021-0768]
Residual activity
  remaining activity at 2300 µM: 105%

## CC1=CC(C)(C)N(C)c2cc(O)ccc21 [Compound Y021-0895]
Tested concentration 2.7 mM
  remaining activity at 2700 µM: 88%

## CC(=O)c1cc2c(cc1C)NC(C)(C)CC2C (stereo not shown) [Compound Y021-0953]
  remaining activity at 2400 µM: 97%

## CC(C)NS(=O)(=O)c1ccc(F)cc1 [Compound Y030-0983]
Tested concentration 2.8 mM
  remaining activity at 2800 µM: 94%

## CC1CN(S(=O)(=O)c2ccc(F)cc2)CC(C)O1 (stereo not shown) [Compound Y030-1235]
Residual activity
  remaining activity at 2000 µM: 93%

## CC1CCCN(S(=O)(=O)Cc2ccccc2)C1 (stereo not shown) [Compound Y030-1494]
  remaining activity at 2400 µM: 79%

## Cc1onc(-c2ccccc2Cl)c1C(=O)NCC#N [Compound Y030-1543]
Residual activity
  remaining activity at 2200 µM: 98%

## COc1cccc(C(=O)Nc2ccccc2C(=O)O)c1 [Compound Y030-1668]
Residual activity
  remaining activity at 1800 µM: 97%

## O=C(O)c1ccccc1NC(=O)C1CCCCC1 [Compound Y030-1673]
  remaining activity at 2000 µM: 104%

## NS(=O)(=O)c1ccc(CNC(=O)N2CCOCC2)cc1 [Compound Y030-3729]
  remaining activity at 1700 µM: 104%

## CCCC(C)C(=O)Nc1ccc(S(N)(=O)=O)cc1 (stereo not shown) [Compound Y030-4922]
  remaining activity at 1800 µM: 77%

Reference: paper PMC9718554, “Discovery of a fragment hit compound targeting D-Ala:D-Ala ligase of bacterial peptidoglycan biosynthesis” (Journal of Enzyme Inhibition and Medicinal Chemistry, 2022)
